Test results as given in PubChem BioAssay (NCI).
“And” between values parts separate entries of the source, which are not always exact repeats. Equal entries are not always repeated.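 Dose response: 5 concentrations. Exposure: 48 h. Format: 96-well plates. Endpoint: linear interpolation; highest concentration if not reached. At the GI50, growth is halved. TGI is the concentration that stops growth completely.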

Experiments:
Assay in all cases: DTP human tumour cell line panel, 48 h
MDA-MB-231 breast = tested on: MDA-MB-231 breast
SW-620 colon = tested on: SW-620 colon
HCT-15 colon = tested on: HCT-15 colon
NCI-H460 lung = tested on: NCI-H460 lung
786-0 renal = tested on: 786-0 renal
K-562 leukemia = tested on: K-562 leukemia
CAKI-1 renal = tested on: CAKI-1 renal
SR leukemia = tested on: SR leukemia
SK-MEL-2 melanoma = tested on: SK-MEL-2 melanoma
HCT-116 colon = tested on: HCT-116 colon

SMILES | GI50 (MDA-MB-231 breast) | TGI (MDA-MB-231 breast) | GI50 (SW-620 colon) | TGI (SW-620 colon) | GI50 (HCT-15 colon) | TGI (HCT-15 colon) | GI50 (NCI-H460 lung) | TGI (NCI-H460 lung) | GI50 (786-0 renal) | TGI (786-0 renal) | GI50 (K-562 leukemia) | TGI (K-562 leukemia) | GI50 (CAKI-1 renal) | TGI (CAKI-1 renal) | GI50 (SR leukemia) | TGI (SR leukemia) | GI50 (SK-MEL-2 melanoma) | TGI (SK-MEL-2 melanoma) | GI50 (HCT-116 colon) | TGI (HCT-116 colon)
CCC1=C(c2ccc(OC)cc2)C(C)(C)Oc2c1ccc(O)c2CN1CCCC1 | 2.39 µM | 4.97 µM | 1.71 µM | 3.3 µM | 1.91 µM | 4.44 µM | 1.7 µM | 3.59 µM | 4.02 µM | 20.2 µM | 0.759 µM | 3.1 µM | 2.95 µM | 30.4 µM | 0.927 µM | 3.63 µM | 1.98 µM | 3.7 µM | – | –
COc1ccc(Br)cc1NC(=O)Nc1cccc2c1ccn2Cc1ccnc(N)c1 | 3.93 µM and 3.01 µM | 10.6 µM and > 10 µM | 2.85 µM and 6.72 µM | 8.41 µM and > 10 µM | 2.44 µM and 2.94 µM | 6.31 µM and > 10 µM | 3.85 µM and 4.2 µM | 15.1 µM and > 10 µM | 8.57 µM and 8.88 µM | 27.5 µM and > 10 µM | 2.41 µM and 2.75 µM | 8.38 µM and > 10 µM | 4.79 µM and 8.78 µM | 21.5 µM and > 10 µM | 2.51 µM and 3.11 µM | 15.5 µM and > 10 µM | 2.78 µM and 3.82 µM | 8.87 µM and > 10 µM | 5.85 µM and 5.75 µM | 19.5 µM and > 10 µM
Cc1c(CN2CCN(C(=O)[C@H](C)O)CC2)sc2c(N3CCOCC3)nc(-c3cnc(N)nc3)nc12 | 0.515 µM and 0.384 µM | > 40.6 µM | 0.473 µM and 0.285 µM | > 100 µM | 0.258 µM and 0.248 µM | > 100 µM | 0.12 µM and 0.108 µM | > 100 µM | 0.38 µM and 0.159 µM | 4.72 µM and 1.11 µM | 1.5 µM and 2.39 µM | > 100 µM | 0.159 µM and 0.213 µM | > 4.52 µM and 2.14 µM | 0.365 µM and 0.262 µM | > 10 µM and 3.88 µM | 0.513 µM and 0.198 µM | 4.72 µM and 1.8 µM | 0.634 µM and 0.252 µM | > 40.1 µM
Cc1c(Cn2c(C)nc3c(C(=O)O)cc(N4CCOCC4)cc32)cccc1C(F)(F)F | > 100 µM | > 100 µM | 45.5 µM | > 100 µM | 4.58 µM | > 100 µM | 40 µM | > 100 µM | 24.7 µM | > 100 µM | > 77.2 µM | > 100 µM | 7.44 µM | > 100 µM | 51.3 µM | > 100 µM | 96.9 µM | > 100 µM | 42.1 µM | > 100 µM
O=C(O)/C=C/c1ccc(Oc2ccccc2C(=O)O)o1 | – | > 10 µM | – | > 10 µM | – | > 10 µM | – | – | – | > 10 µM | – | > 10 µM | – | > 10 µM | – | > 10 µM | – | – | – | > 10 µM
C(=N\Nc1ncc(-c2cc3cc4c(cc3o2)OCO4)s1)/c1ccco1 | 1.64 µM | 3.83 µM | 0.681 µM | 2.48 µM | – | – | 2.59 µM | 10.3 µM | 1.97 µM | 4.94 µM | 2.1 µM | > 100 µM | 0.854 µM | 6.69 µM | 1.29 µM | 25.3 µM | 3.11 µM | 11.3 µM | 1.57 µM | 4.03 µM
Fc1cccc(COc2ccc(Nc3ncnc4onc(-c5ccccc5)c34)cc2)c1 | 0.402 µM | 14.8 µM | 0.139 µM | > 100 µM | 2.43 µM | > 100 µM | 0.0661 µM | > 53.3 µM | 0.691 µM | 21.2 µM | 0.101 µM | > 100 µM | 0.573 µM | > 100 µM | 0.0884 µM | > 100 µM | 0.426 µM | > 100 µM | 0.0546 µM | > 37.4 µM
NC(=O)CC1OC(=O)Cc2cc3c(c(O)c21)C(=O)c1c(O)cccc1C3=O (centres undefined) | – | > 100 µM | – | > 100 µM | – | > 100 µM | – | > 100 µM | – | > 100 µM | – | > 100 µM | – | > 100 µM | – | > 100 µM | – | > 100 µM | – | > 100 µM
Cc1ccc(OP(=O)(Oc2ccc(C)cc2)N2C=Cc3ccccc3C2C#N)cc1 (centres undefined) | – | > 100 µM | – | > 100 µM | – | > 100 µM | – | > 100 µM | – | > 100 µM | – | > 100 µM | – | > 100 µM | – | > 100 µM | – | > 100 µM | – | > 100 µM
COc1cc(-n2ccnc2-c2ccc3ccccc3c2)cc(OC)c1OC | 0.571 µM | 44.1 µM | 0.0443 µM | > 63 µM | 0.0509 µM | > 48.6 µM | 0.0373 µM | 14.7 µM | 0.161 µM | 19 µM | < 0.0191 µM | > 100 µM | 0.0853 µM | > 75.3 µM | < 0.0188 µM | > 43.4 µM | 0.19 µM | 26.9 µM | 0.0382 µM | 15.3 µM
